Counter-ions that a name gives are not always drawn.
Tests used:
[1] = phenyl-para-quinone writhing assay in mice (analgesia); format: in vivo
Description: The compounds of the present invention are useful as analgesic agents due to their ability to alleviate pain in mammals. […] Exptl. Biol. Med., 95, 729 (1957)]. The analgesic activity of some of the compounds of the invention expressed in terms of percent inhibition of writhing is given in Table 1.

[2] = antihypertensive activity in the spontaneous hypertensive rat by the indirect tail cuff method; format: in vivo; conditions: at 50 mg/kg p.o, treated orally for three days, drop measured on the third day
Description: Antihypertensive activity is measured in the spontaneous hypertensive rat by the indirect tail cuff method. […] In this procedure a group of five animals is treated orally for three days with the test compound in relation to a control group of the same number. The drop in blood pressure is measured on the third day following administration.

CC1SCC(=O)N1CC#CCN1CCC(O)(c2ccccc2)CC1.O=C(O)C(=O)O (stereo not shown) [2-Methyl-3-(4-(4-hydroxy-4-phenylpiperidino)-2-butynyl)-4-oxothiazolidine oxalate]
% Inhibition of Writhing ([1]; at 20 mg/kg s.c.): 51%

O=C(O)/C=C\C(=O)O.O=C(O)/C=C\C(=O)O.O=C1CSCN1CC#CCN1CCN(C(c2ccccc2)c2ccc(Cl)cc2)CC1 (stereo not shown) [3-(4-(1-(4-Chlorobenzhydryl)piperazino)-2-butynyl)-4-oxothiazolidine bis maleate]
mm Hg decrease (decrease in mean arterial blood pressure) [2]: 28 mm Hg

O=C1CSCN1CC#CCN1CCN(c2ccc(F)cc2)CC1 [3-(4-(1-(4-Fluorophenyl)piperazino)-2-butynyl-4-oxothiazolidine oxalate]
mm Hg decrease (decrease in mean arterial blood pressure) [2]: 71 mm Hg

O=C1CSCN1CC#CCN1CCN(c2ccncc2)CC1 [3-(4-(4-Pyridyl)piperazino)-2-butynyl)-4-oxothiazolidine sesquioxalate]
mm Hg decrease (decrease in mean arterial blood pressure) [2]: 30 mm Hg

O=C1CSCN1CC#CCN1CCC(c2noc3cc(Cl)ccc23)CC1 [3-(4-[3-(4-piperidyl)-6-chloro-benzisoxazole]-2-butynyl)-4-oxothiazolidine oxalate]
% Inhibition of Writhing ([1]; at 20 mg/kg s.c.): 39%

COc1ccccc1N1CCN(CC#CCN2CSCC2=O)CC1 [3-[4-(1-(2-Methoxyphenyl)piperazino)-2-butynyl]-4-oxothiazolidine sesquioxalate]
mm Hg decrease (decrease in mean arterial blood pressure) [2]: 51 mm Hg

O=C1CSC2(CCCC2)N1CC#CCN1CCN(C(c2ccccc2)c2ccc(Cl)cc2)CC1 (stereo not shown) [4-(4-(1-(4-Chlorobenzhydryl)piperazino)-2-butynyl)-1-thia-4-azaspiro[4.4]nonane-3-one trisoxalate]
% Inhibition of Writhing ([1]; at 20 mg/kg s.c.): 30%

N=C(N)NCCN1CCCCCCC1 [guanethidine, reference compound]
mm Hg decrease (decrease in mean arterial blood pressure) [2]: 20 mm Hg

CC(C)Cc1ccc(C(C)C(=O)O)cc1 (stereo not shown) [ibuprofen, reference compound]
% Inhibition of Writhing ([1]; standard, at 10.4 mg/kg s.c.): 50%

CC(C)=CCN1CCC2(C)c3cc(O)ccc3CC1C2C (stereo not shown) [pentazocine, reference compound]
% Inhibition of Writhing ([1]; standard, at 1.3 mg/kg s.c.): 50%

— patent publication US5034392A, “4-(3-(4-oxothiazolidinyl)butynylamines” (Hoechst-Roussel Pharmaceuticals Incorporated, priority 1990, dated 1991)
